A word on the melting point: it is the temperature of the solid-liquid transition.

The values that follow come from a melting point compilation (Tetko et al.; mined from patent text by program, amines drawn as free bases though some values may be those of a salt).

The structures appear in SMILES notation. Bounds are passed on as bounds.

The compound `O=C1CCC(N2C(=O)c3ccc(CNC(=O)Nc4ccc(Cl)c(Cl)c4)cc3C2=O)C(=O)N1` (configuration not stated) registered a melting point of 290 to 292 °C.

As to `Cc1nc(NCCN2CCOCC2)c2nc(-c3ccccc3)cc-2[nH]1`, the melting point is more than 280 °C. The compound `O=C(Nc1ccc(F)cc1)C12CC3CC(CC(C3)C1)C2` gave a melting point of 170 to 171 °C. Take `Cc1nn(C)c(F)c1C(=O)Nc1cccc2c1C(C)CC2(C)C` (configuration not stated): the melting point amounted to 137 °C. `Cc1nc(N2CCN(Cc3ccc(OC(F)(F)F)cc3)C2=O)sc1C(=O)NCCC1CC1`: the melting point lay within 195 to 196 °C. On to `O=CNNc1ccc(NC(=O)c2cccc([N+](=O)[O-])c2)cc1`, for which the melting point was in the range of 185 to 187 °C. As for `Cn1c(=O)[nH]c(=O)n(-c2cc([N+](=O)[O-])c(F)cc2Cl)c1=O`, the figure is 135 to 139 °C; as for `CC(=O)OCC(COC(C)=O)OCn1cnc2c(=O)[nH]c(N)nc21`, 237 to 239 °C. As for `COc1cc(C(C)C)c2c(c1)S(=O)(=O)N(COc1cc(C(F)(F)F)nn1Cc1ccccc1)C2=O`, the melting point lay within 116 to 118 °C. As for `Cn1cc(CS(C)(=O)=O)c(=O)c2sccc21`, the figure is 220 to 223 °C. In turn, `O=C(O)[C@@H]1C[C@@H](c2ccccc2)CN1C(=O)c1ccccc1Br` displayed a melting point of 146 to 147 °C. Consider `CC(C)C(NC(=O)Cn1cc(Cc2ccccc2)cc(NC(=O)OCc2ccccc2)c1=O)C(=O)C(F)(F)F` (configuration not stated), for which the melting point was 58 to 64 °C.

Turning to `CC(C)n1nc(-c2sc(N)nc2-c2ccccc2F)ccc1=O`, the melting point was 233 to 235 °C. For the compound `O=c1ccn(-c2ccccc2)nc1-c1ccnn1-c1ccccc1`, the melting point lay within 179 to 180 °C.

With `Cn1c2cc(OCCO)ccc2c2c3c(c(-c4ccccc4Cl)cc21)C(=O)NC3=O`, the melting point is 309 to 312 °C. The compound `CC(C)(CO)NS(=O)(=O)c1cccc(NC(=O)c2cnn3c(C(F)(F)F)cc(-c4ccc(C(F)(F)F)cc4)nc23)c1` gave a melting point of 227 °C. On to `COC(=O)c1cc(C#CCOC2CCCCO2)c(C(F)(F)F)cc1N` (configuration not stated), for which the melting point was 88 °C. For `CN(C)CCCc1cccc(OCCCNc2nc(N)nn2C)c1` the value was 64 to 65.5 °C; for `O=C1c2ccccc2C(=O)N1CCCCSc1ccncc1`, 106 to 108 °C; for `COc1ccc(C2(C)C(=O)c3c(N4CCN(C)CC4)cc(Cl)cc3N(Cc3ccccc3)C2=O)cc1` (configuration not stated), 66 to 67 °C. As for `CC(C)(C)CC(C)(C)n1scc(Br)c1=O`, the figure is 133 to 142 °C. For `CNCCOc1ccc(C=CC(=O)N2CCc3c([nH]c4ccccc34)C2c2ccc3c(c2)CCO3)cc1` (configuration not stated) the value was 145 °C.

In turn, `C=CCNc1nc(NCc2ccccc2)nc2ccc([N+](=O)[O-])cc12` yielded a melting point of 216 to 217 °C. As for `O=C(O)c1cccc(Cc2cc(Cl)cc(Cc3ccccc3O)c2O)c1O`, the figure is 198 to 200 °C.

For the compound `COc1ccc2c(c1)c1c(n2Cc2ccccc2)CCCC1C(=O)O` (configuration not stated), the melting point was 179 to 183 °C. For `COc1cccc(C(O)(CC2CCNCC2)c2cccc(OC)c2)c1` the value was 111 to 113 °C; for `O=C1NC(=O)C(Nc2ccc(CCNCC(O)COc3cccc4ccccc34)cc2)S1` (configuration not stated), 61 to 62 °C; for `CN(CCOc1ccccc1C(N)=O)CCc1ccc([N+](=O)[O-])cc1`, 116 to 118 °C. As for `O=c1[nH]c2cc(Cl)cc(Cl)c2c(=O)n1-c1ccccc1`, the figure is 314 to 319 °C; as for `CC1CC2C3CCC4=CC(=O)C=CC4(C)C3=CCC2(C)C1C(=O)CN1CCN(c2cc(NCC(C)(C)C)nc(NC(C)(C)C)n2)CC1` (configuration not stated), 155 to 160 °C. As for `N#Cn1nc(-c2ccccc2)c(=O)cc1Br`, the figure is 152 to 155 °C; as for `Cc1cc(C)c(Nc2nc(N(C)C)ncc2S(=O)(=O)c2cccc(OCc3ccccc3)c2)c(C)c1`, 52 to 58 °C. Compound `O=C(O)CCC(=O)Nc1cccc2ccccc12` displayed a melting point of 167 to 169 °C. For `CCOC(=O)C1=C(CC)Nc2n[nH]cc2C1c1ccccc1OC` (configuration not stated) the value was 169 °C. On to `O=C(O)CCC(=O)OCCn1ccnc1`, for which the melting point was in the range of 108 to 110 °C. As for `CC(=O)CC(=O)Nc1ccc(N)c([N+](=O)[O-])c1`, the figure is 146 to 147 °C; as for `CC(C)(CC(O)(Cn1ccc(=O)c2sccc21)C(F)(F)F)c1cc(S(C)(=O)=O)cc2c1OCC2` (configuration not stated), 163 to 165 °C. Compound `COc1cc(N)c(Cl)cc1C(=O)NCC1CCN(CCCCCNC(=O)Nc2ccc(Cl)cc2)CC1` had a melting point of 204 to 206 °C.

In turn, `CCOC(=O)COc1cc(O)c2c(=O)cc(-c3ccc(OC)c(OCC(=O)N4CCN(Cc5ccc(OC)c(OC)c5OC)CC4)c3)oc2c1` had a melting point of 105 to 106 °C.

`CC(C)c1ccc(C(=O)O)c(C2=NC(=O)C(C)(C(C)C)N2)n1` (configuration not stated) gave a melting point of 131 to 134 °C. `CCCN(CCC)C(=O)c1n[nH]c2c(=O)[nH]c3cc(Cl)ccc3c(=O)c12` showed a melting point of 270 °C. As for `Cn1c(CNC(=O)c2cc3ccccc3[nH]2)c(-c2ccccc2)c2cc(Cl)ccc2c1=O`, the figure is more than 305 °C. Turning to `Cc1[nH]c(C(C)(C)C)nc1C=O`, the melting point fell in the range of 196 to 198 °C. For `CSc1c2n(c3ccccc13)CCC2N(O)C(N)=O` (configuration not stated) the value was 178 °C; for `COCc1nc2c(OC)c3c(=O)n(C)c(COC)nc3c(OC)c2c(=O)n1C`, 223 to 224 °C; for `CCOC(=O)C(=O)Nc1cccc(F)c1O`, 168 °C. Regarding `CC(C)c1cn2nc(Cl)ccc2n1`, the melting point lay within 106 to 108 °C.

As for `Cc1cnnc2c1C(=O)CC(c1ccccc1Cl)C2` (configuration not stated), the melting point was 108 to 109 °C. As for `CCCN(CCC)C(=O)Cc1c(-c2ccc(Cl)cc2)nn2cccnc12`, the figure is 104 to 106 °C; as for `COC(=O)c1c(C(=O)OC)c2sc3ccccc3n2c1C`, 143 to 144 °C; as for `Cc1ccc(C=Cc2ccc(C#CC(C)N(O)C(N)=O)o2)cc1` (configuration not stated), 174 °C. The compound `CCCCCCCCCCCCCCOc1ccc(C(=O)OC)o1` gave a melting point of 56 to 58 °C. `CC(CC1=C(O)C(=O)c2ccccc2C1=O)C(F)(F)F` (configuration not stated) displayed a melting point of 168 °C. As for `CC(C)C1=CC2=CCC3C(C)(C(=O)N(C)C4CCCCC4)CCCC3(C)C2CC1` (configuration not stated), the figure is 130 to 132 °C; as for `CCC(Oc1cccc2ccccc12)C(=O)OC1CC(O)C=C2C=CC(C)C(CCC3CC(O)CC(=O)O3)C21` (configuration not stated), 138 to 140 °C. As for `CCCCCCOc1ccc(C=[N+]([O-])C(C)(C)C)cc1`, the melting point amounted to 69 °C. As for `CC(Cl)(Cl)C1(Cl)N=C(Cl)C(Cl)=N1`, the figure is 58 to 60 °C; as for `Cc1ncc(COC(=O)c2ccncc2)cc1O`, 180 °C.

Take `CCC1(C)CN(c2c(F)c(N)c3c(=O)c(C(=O)O)cn(C4CC4)c3c2OC)CCC1NC` (configuration not stated): the melting point is 164 to 166 °C. Turning to `O=C(NCC#CCN1CCOCC1)N1c2ccccc2-c2noc3c2C1CCC3` (configuration not stated), the melting point was found to be 186 °C. In the case of `N#Cc1cnn(-c2ccc(Cl)cc2Cl)c1C(F)(F)F`, the melting point was 83 to 85 °C. Compound `CC(=O)Nc1c(C(=O)C(C)(C)C)[nH]c2cc(Cl)ccc12` yielded a melting point of 190 to 193 °C. Regarding `CCOC(=O)CNC(=O)Cn1c(-c2cccc(Cl)c2)nc2cccnc21`, the melting point was 144 to 145 °C. Regarding `CC(Oc1ncn(-c2ccccc2)n1)C(=O)O` (configuration not stated), the melting point fell in the range of 140 to 142 °C.

Compound `COC(COc1ccc2oc(C(=O)O)c(C)c2c1)OC` returned a melting point of 74 °C. As for `O=C(O)CCNc1ccccc1CNC(=O)C1Cc2ccccc2N1S(=O)(=O)c1ccc(-c2cccc(C(F)(F)F)c2)cc1` (configuration not stated), the figure is 94 °C; as for `COCCS(=O)(=O)c1ccc(CCN2CC=C(c3c[nH]c(-c4ccc(F)c(Cl)c4)c3-c3ccncc3)CC2)cc1`, 208 to 210 °C; as for `CC(C)(C)OC(=O)COC1=CC(=NS(=O)(=O)c2cccs2)c2ccccc2C1=O`, 153 to 155 °C. For `COc1ccc2cc(-c3ccc(-n4nc(C)nc4C)c(Cl)c3)c(=O)oc2c1`, the melting point turned out to be 219 °C. As to `CCc1cc(-c2ccc(-c3ccnn3C)cc2)ccc1OC`, the melting point fell in the range of 97 to 100 °C. For `Cc1sc(CCc2ccc(C=O)cc2)nc1-c1ccccc1` the value was 66 to 67 °C; for `Cc1ncsc1CCNC(=O)c1cnc(N2CCN(C(=O)c3c(-c4ccccc4)n(C)c4cccnc34)CC2)cn1`, 225 °C; for `CC(=O)n1ccc(O)n1`, 191 °C. For `O=C(NC(Cc1ccccc1)C(=O)O)c1ccccc1O` (configuration not stated) the value was 52 to 53 °C; for `COc1cc(F)c(C)cc1C#N`, 99 to 101 °C; for `NC(=O)OCC(OC(N)=O)c1ccccc1Cl` (configuration not stated), 167 to 169 °C.

`CCOC(=O)c1c(O)c2ccsc2n(Cc2ccccc2)c1=O` had a melting point of 146 °C. Compound `O=C(CBr)Nc1c(C(F)(F)F)cc(OCc2ccccc2)cc1C(F)(F)F` displayed a melting point of 173 to 175 °C.

`CSCC(=O)[C@H](Cc1ccccc1)NC(=O)[C@H](CC(C)C)NC(=O)OC(C)(C)C` had a melting point of 117 to 118 °C. As for `CCOC(=O)c1ccc(COc2cccc3oc(C)cc23)cc1`, the figure is 59 to 61 °C. As for `C#Cc1ccc2c(=O)c(C(=O)OCC)cn(-c3ccc(F)cc3)c2c1`, the figure is 227 to 229 °C. With `Cc1ncc(C(=O)O)nc1C`, the melting point was determined as 187 °C. For `Cc1c(CO)c(CO)c2sc3ccccc3n12` the value was 138 to 139 °C; for `CC1(c2cc(-c3nc4ccc(OCc5ccccc5)cc4[nH]3)ccc2OCc2ccccc2)CCCCC1`, 209 °C; for `CCCCc1nn(-c2cc(NC(=O)c3ccccc3)ccc2C(F)(F)F)c(=O)n1Cc1ccc(-c2ccccc2S(=O)(=O)NC(=O)OC(C)(C)C)cc1F`, 117 to 120 °C.

Consider `CC1(C)CSCC(=O)N1`, for which the melting point fell in the range of 151 to 152 °C.

`CC(=O)OC1CC2CCC3C4CC(N5CCCCC5)C(=O)C4(C)CCC3C2(C)CC1N1CCCCC1` (configuration not stated): the melting point turned out to be 154 °C.
